Experimental data published in patent US20030055092A1, “Remedies for ischemic stroke” (priority 1998, published 2003).
Blank lines part the entries; values can stand above or below the molecule they belong to.

How the values were obtained:
[1] = tested on: gerbils exposed to 5 min of cerebral ischemia; conditions: cited from earlier work
mGluR6 = molecular target: T1, mGluR6 (Rattus norvegicus, UniProt P35349); assay: forskolin-induced cAMP formation in mGluR6-expressing CHO cells; format: cell-based; conditions: up to 100 μM
T1 construct: expressed in transfected cells; host or cells: CHO
Experimental: (§1) NIH3T3 cells expressed mGluR1 α and mGluR5a individually were cultured in DMEM medium containing 10% dialyzed fetal bovine serum and 100 units/ml, 0.1 mg/ml streptomycin sulfate. CHO cells which expressed mGluR2, R3, R4, R6 and R7 individually were cultured in DMEM medium containing 10% dialyzed fetal bovine serum, 100 units/ml, 0.1 mg/ml streptomycin sulfate and 2 mM glutamine. Using the cells expressing mGluR2, R3, R4, R6 and R7 cAMP formation induced by forskolin in the presence of IBMX was measured using a cAMP measuring kit as previously described (Neuron, 8, 169-179, 1992).

mGluR3 = molecular target: T2, mGluR3 (Rattus norvegicus, UniProt P31422); assay: forskolin-induced cAMP formation in mGluR3-expressing CHO cells; format: cell-based; conditions: up to 100 μM
T2 construct: expressed in transfected cells; host or cells: CHO
Experimental: as §1

mGluR2 = molecular target: T3, mGluR2 (Rattus norvegicus, UniProt P31421); assay: forskolin-induced cAMP formation in mGluR2-expressing CHO cells; format: cell-based; conditions: up to 100 μM
T3 construct: expressed in transfected cells; host or cells: CHO
Experimental: as §1

mGluR7 = molecular target: T4, mGluR7 (Rattus norvegicus, UniProt P35400); assay: forskolin-induced cAMP formation in mGluR7-expressing CHO cells; format: cell-based; conditions: up to 100 μM
T4 construct: expressed in transfected cells; host or cells: CHO
Experimental: as §1

[2] = tested on: Fischer-344 rat, permanent left MCA occlusion; assay: permanent MCA occlusion model, cerebral infarct volume (TTC staining); format: in vivo; conditions: 6 mg/kg/h i.v. continuously for 24 hours from 5 minutes after occlusion
Experimental: Compound A was dissolved in physiological saline and adjusted to 6 mg/3 ml. In accordance with the known method (J. Pharmacol. Exp. Thr., 276, 84-92, 1996), left MCA of a Fischer-344 rat was subjected to permanent occlusion and, 5 minutes thereafter, the compound A was intravenously administered continuously for 24 hours at a rate of 6 mg/a dose volume of 3 ml/kg/h under no anesthesia and no restriction. After completion of the administration, the animal was decapitated to excise the brain which was subsequently stained with 2,3,5-triphenyltetrazolium hydrochloride (TTC) to measure infarct volume.

mGluR1α = molecular target: T5, mGluR1α (Rattus norvegicus, UniProt P23385); assay: glutamate-induced phosphatidylinositol (PI) hydrolysis in mGluR1α-expressing cells; format: cell-based; conditions: 100 μM glutamate, read-out: IC50 for inhibition of glutamate-induced PI formation against mGluR1α
T5 construct: expressed in transfected cells; host or cells: NIH3T3
Experimental: (§2) NIH3T3 cells expressed mGluR1 α and mGluR5a individually were cultured in DMEM medium containing 10% dialyzed fetal bovine serum and 100 units/ml, 0.1 mg/ml streptomycin sulfate. CHO cells which expressed mGluR2, R3, R4, R6 and R7 individually were cultured in DMEM medium containing 10% dialyzed fetal bovine serum, 100 units/ml, 0.1 mg/ml streptomycin sulfate and 2 mM glutamine. Hydrolysis of phosphatidylinositol was measured as previously described (Nature, 383, 89-92, 1996) using the mGluR1 α-expressing cells incorporated ^3H-inositol.

mGluR4 = molecular target: T6, mGluR4 (Rattus norvegicus, UniProt P31423); assay: forskolin-induced cAMP formation in mGluR4-expressing CHO cells; format: cell-based; conditions: up to 100 μM
T6 construct: expressed in transfected cells; host or cells: CHO
Experimental: as §1

mGluR5 = molecular target: T7, mGluR5 (Rattus norvegicus, UniProt P31424); assay: agonist/antagonist activity in mGluR5a-expressing NIH3T3 cells; format: cell-based; conditions: up to 10 μM
T7 construct: expressed in transfected cells; host or cells: NIH3T3
Experimental: as §2, with “glutamine.” for “glutamine. Hydrolysis of phosphatidylinositol was measured as previously described (Nature, 383, 89-92, 1996) using the mGluR1 α-expressing cells incorporated ^3H-inositol.”

T7 sequence (P31424 21-1171 isoform P31424-2 limits assumed): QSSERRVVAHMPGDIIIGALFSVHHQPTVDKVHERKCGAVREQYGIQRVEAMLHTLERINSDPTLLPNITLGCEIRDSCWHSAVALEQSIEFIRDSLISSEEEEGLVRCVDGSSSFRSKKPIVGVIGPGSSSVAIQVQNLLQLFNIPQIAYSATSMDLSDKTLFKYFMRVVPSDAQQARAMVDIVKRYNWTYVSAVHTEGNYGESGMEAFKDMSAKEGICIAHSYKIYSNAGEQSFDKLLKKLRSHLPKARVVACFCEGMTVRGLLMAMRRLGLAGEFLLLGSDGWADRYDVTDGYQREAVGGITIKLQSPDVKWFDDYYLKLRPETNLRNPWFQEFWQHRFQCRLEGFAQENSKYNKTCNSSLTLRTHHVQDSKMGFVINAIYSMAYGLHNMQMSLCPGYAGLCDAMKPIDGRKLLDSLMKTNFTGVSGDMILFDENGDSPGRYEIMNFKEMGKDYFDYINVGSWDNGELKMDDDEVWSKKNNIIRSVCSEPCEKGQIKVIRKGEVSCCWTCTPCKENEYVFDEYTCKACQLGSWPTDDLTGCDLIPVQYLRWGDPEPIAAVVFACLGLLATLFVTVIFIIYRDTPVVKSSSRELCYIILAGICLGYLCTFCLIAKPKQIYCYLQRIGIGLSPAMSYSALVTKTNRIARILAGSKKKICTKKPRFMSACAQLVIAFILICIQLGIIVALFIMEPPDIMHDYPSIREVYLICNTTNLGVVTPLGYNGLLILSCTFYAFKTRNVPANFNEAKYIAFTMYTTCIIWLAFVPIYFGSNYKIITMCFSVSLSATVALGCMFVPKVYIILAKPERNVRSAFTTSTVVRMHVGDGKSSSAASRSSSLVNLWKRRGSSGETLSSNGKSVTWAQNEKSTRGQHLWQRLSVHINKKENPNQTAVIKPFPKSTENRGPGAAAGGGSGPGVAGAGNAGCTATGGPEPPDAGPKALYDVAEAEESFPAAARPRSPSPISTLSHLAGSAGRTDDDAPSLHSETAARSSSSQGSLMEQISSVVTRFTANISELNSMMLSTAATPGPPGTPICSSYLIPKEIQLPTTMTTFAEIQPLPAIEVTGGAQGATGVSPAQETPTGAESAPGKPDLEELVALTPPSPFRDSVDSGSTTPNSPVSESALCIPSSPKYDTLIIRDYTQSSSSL
T2 sequence (P31422 23-879): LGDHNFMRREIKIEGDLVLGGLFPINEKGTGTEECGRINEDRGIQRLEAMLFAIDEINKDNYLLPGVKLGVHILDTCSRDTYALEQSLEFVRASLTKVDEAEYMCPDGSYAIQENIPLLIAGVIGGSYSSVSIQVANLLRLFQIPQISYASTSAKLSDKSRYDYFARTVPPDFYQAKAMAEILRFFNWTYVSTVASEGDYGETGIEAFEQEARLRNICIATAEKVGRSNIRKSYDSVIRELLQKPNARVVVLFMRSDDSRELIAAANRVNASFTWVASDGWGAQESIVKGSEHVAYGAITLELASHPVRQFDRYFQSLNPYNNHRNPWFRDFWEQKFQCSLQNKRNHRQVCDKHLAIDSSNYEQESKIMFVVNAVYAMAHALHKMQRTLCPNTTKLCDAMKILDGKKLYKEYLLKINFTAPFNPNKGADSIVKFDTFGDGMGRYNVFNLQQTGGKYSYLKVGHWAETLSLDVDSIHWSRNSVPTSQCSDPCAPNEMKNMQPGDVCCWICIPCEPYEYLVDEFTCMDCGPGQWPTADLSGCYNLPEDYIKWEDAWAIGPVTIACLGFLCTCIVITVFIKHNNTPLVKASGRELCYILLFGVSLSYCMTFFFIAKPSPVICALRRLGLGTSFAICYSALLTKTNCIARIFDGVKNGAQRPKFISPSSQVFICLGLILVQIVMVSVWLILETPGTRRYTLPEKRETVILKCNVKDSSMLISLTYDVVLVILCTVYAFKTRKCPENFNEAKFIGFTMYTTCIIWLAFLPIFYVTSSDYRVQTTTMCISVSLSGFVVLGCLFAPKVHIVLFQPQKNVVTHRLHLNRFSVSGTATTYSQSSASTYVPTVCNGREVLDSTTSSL
T4 sequence (P35400 35-915): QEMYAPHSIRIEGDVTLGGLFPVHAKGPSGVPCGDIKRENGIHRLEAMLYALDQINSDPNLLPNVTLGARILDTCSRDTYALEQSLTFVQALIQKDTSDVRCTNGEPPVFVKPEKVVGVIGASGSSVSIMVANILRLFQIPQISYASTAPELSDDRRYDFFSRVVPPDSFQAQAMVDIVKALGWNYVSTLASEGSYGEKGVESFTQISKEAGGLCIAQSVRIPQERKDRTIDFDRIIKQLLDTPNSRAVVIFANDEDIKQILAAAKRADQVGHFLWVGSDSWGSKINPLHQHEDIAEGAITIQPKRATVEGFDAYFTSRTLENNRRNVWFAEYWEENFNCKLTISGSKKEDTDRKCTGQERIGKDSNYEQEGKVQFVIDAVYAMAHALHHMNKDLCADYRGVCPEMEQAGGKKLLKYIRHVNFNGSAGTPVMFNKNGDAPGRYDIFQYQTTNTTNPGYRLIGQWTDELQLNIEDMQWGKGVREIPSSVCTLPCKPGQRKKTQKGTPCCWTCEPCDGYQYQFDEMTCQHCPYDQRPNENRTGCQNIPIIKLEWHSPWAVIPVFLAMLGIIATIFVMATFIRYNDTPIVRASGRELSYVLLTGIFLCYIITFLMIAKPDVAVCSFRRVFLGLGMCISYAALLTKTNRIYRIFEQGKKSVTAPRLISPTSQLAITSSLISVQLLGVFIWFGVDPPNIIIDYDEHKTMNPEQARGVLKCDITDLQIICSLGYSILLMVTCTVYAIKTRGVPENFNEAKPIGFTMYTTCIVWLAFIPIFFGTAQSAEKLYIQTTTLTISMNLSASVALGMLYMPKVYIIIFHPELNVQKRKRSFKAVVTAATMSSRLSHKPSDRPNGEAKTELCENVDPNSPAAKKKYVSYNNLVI
T1 sequence (P35349 24-871): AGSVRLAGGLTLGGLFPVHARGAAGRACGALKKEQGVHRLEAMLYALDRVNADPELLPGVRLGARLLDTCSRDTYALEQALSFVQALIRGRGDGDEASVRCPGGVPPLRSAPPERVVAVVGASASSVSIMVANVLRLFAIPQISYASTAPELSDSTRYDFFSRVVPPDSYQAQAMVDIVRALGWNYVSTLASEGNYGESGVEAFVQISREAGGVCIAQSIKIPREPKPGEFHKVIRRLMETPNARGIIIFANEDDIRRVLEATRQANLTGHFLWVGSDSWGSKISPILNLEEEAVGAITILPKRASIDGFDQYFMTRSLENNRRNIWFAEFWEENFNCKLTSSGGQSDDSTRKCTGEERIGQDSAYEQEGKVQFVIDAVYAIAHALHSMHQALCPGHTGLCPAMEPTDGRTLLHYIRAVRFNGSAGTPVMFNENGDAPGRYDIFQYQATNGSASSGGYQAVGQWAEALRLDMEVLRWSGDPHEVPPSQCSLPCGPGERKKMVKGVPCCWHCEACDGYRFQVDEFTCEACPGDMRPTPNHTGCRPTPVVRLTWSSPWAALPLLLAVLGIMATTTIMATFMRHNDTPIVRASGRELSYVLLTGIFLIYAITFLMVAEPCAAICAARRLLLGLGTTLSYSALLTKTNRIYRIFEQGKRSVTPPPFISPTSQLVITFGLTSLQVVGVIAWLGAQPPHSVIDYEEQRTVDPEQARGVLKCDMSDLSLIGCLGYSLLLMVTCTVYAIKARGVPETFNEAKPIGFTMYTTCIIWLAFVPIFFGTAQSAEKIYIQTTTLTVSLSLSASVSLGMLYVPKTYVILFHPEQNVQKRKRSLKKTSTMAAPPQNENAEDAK
T3 sequence (P31421 19-872): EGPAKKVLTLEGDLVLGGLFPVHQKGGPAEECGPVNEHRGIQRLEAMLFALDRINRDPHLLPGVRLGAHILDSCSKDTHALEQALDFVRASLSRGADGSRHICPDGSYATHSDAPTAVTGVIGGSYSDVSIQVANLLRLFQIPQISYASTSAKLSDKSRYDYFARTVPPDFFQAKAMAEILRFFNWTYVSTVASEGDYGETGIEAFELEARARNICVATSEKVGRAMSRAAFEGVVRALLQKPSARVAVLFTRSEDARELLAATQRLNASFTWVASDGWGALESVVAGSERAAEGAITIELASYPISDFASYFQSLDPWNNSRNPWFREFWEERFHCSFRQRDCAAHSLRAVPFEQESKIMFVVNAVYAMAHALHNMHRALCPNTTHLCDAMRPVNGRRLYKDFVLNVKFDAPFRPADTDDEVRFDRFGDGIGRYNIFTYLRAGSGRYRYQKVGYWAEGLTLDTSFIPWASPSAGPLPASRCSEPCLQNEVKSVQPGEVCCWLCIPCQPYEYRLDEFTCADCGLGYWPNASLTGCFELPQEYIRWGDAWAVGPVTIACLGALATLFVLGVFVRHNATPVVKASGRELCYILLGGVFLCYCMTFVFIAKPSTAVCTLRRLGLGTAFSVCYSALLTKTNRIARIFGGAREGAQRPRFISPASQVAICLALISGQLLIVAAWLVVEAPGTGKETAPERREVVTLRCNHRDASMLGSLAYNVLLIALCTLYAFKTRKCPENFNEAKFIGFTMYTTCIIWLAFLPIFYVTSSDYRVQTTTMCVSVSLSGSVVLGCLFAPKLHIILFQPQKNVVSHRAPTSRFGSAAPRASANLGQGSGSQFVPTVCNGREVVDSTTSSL

Structure (SMILES): NC1(C(=O)O)CCc2cc(C(=O)O)ccc21 (stereo not shown) [AIDA]
loss of neuronal cells in CA1 area ([1]; intraventricular administration): reduced the loss of the neuronal cells

Structure (SMILES): N[C@H](C(=O)O)c1ccc(C(=O)O)c(O)c1 [4 C3 HPG, (S)-4-carboxy-3 hydroxyphenylglycine]
neuroprotective effectiveness in the same gerbil model [1]: is effective

Structure (SMILES): N[C@H](C(=O)O)c1ccc(C(=O)O)cc1 [4 CPG, (S)-4-carboxyphenylglycine]
neuroprotective effectiveness in the same gerbil model [1]: is not effective

agonist and antagonist activities against mGluR6 (mGluR6): no agonist and antagonist activities
agonist and antagonist activities against mGluR3 (mGluR3): no agonist and antagonist activities
agonist and antagonist activities against mGluR2 (mGluR2): no agonist and antagonist activities
agonist and antagonist activities against mGluR7 (mGluR7): no agonist and antagonist activities
IC50 (mGluR1α): 24 nM
agonist and antagonist activities against mGluR4 (mGluR4): no agonist and antagonist activities
agonist and antagonist activities against mGluR5 (mGluR5): no agonist and antagonist activities
Structure (SMILES): Cc1c(C(=O)N(C)C2CCCCC2)sc2nc3ccc(N)cc3n12.Cl.Cl [compound A, 6-amino-N-cyclohexyl-N,3-dimethylthiazolo[3,2-a]benzoimidazole-2-carboxamide dihydrochloride]
cerebral infarct volume suppression ratio in cerebral cortex [2]: 36%
cerebral infarct volume suppression ratio in cerebral hemisphere [2]: 29%
effect on cerebral infarct volume versus controls [2]: reduced the cerebral infarct volume significantly
